Activity calls are given as the source filed them. The calls are words filed in the database; no cut-off is given here.

Data set [1] concerns TK-10. Description: Cytotoxicity against human TK10 cells after 48 hrs by SRB assay. Format: functional, cell-based. The following applies: TK-10, 48 h. (The SRB assay estimates cell density from bound dye.)
The subject of a further data set is MCF7. Put plainly: Cytotoxicity against human MCF7 cells after 48 hrs by SRB assay. Format: functional, cell-based. The following applies: MCF7, 48 h.
The next data set deals with UACC-62. Description: Cytotoxicity against human UACC62 cells after 48 hrs by SRB assay. Format: functional, cell-based. The settings on record: UACC-62, 48 h.
For a further data set, the species on record is Homo sapiens. Put plainly: Plasma concentration in human. Format: ADME, organism-based. The following applies: in vivo.
A further data set deals with K562. Description: Cytotoxicity against human K562 cells by XTT assay. Format: functional, cell-based. For orientation: Formazan colour is commonly taken as a measure of viable cells.
For data set [2], the system named is TK-10. Description: Induction of apoptosis in human TK10 cells assessed as viable cells at 3 nM for 48 hrs measured after 3 days of drug removal by fluorescence microscopy assay. The following applies: read-out: Activity. The class given is functional.
The subject of data set [3] is TK-10. Put plainly: Induction of apoptosis in human TK10 cells assessed as apoptotic cells at 3 nM for 48 hrs measured after 3 days of drug removal by fluorescence microscopy assay. Format: functional.
Data set [4] relates to TK-10. Description: Induction of apoptosis in human TK10 cells assessed as necrotic cells at 3 nM for 48 hrs measured after 3 days of drug removal by fluorescence microscopy assay. Format: functional.
Data set [5] addresses DNA topoisomerase 2-alpha (Homo sapiens) (UniProt P11388). Put plainly: Inhibition of topoisomerase 2alpha-mediated cleavage of double-stranded pRYG DNA assessed as linear DNA at 30 nM by agarose gel electrophoresis.
For data set [6] the target is unchanged. Put plainly: Inhibition of topoisomerase 2alpha-mediated cleavage of double-stranded pRYG DNA assessed as linear DNA at 100 nM by agarose gel electrophoresis.
Data set [7] has the same target. Description: Inhibition of topoisomerase 2alpha-mediated cleavage of double-stranded pRYG DNA assessed as linear DNA at 100 uM by agarose gel electrophoresis.
Data set [8] deals with DNA topoisomerase 2-beta (Homo sapiens) (UniProt Q02880). Description: Inhibition of topoisomerase 2beta in human K562 cells assessed as cleavage of supercoiled pRYG DNA at 300 nM by TARDIS assay. The settings on record: TDE = time-dependent effect. The class given is cell-based.
Sequence of DNA topoisomerase 2-beta (Homo sapiens) (Q02880 whole entry): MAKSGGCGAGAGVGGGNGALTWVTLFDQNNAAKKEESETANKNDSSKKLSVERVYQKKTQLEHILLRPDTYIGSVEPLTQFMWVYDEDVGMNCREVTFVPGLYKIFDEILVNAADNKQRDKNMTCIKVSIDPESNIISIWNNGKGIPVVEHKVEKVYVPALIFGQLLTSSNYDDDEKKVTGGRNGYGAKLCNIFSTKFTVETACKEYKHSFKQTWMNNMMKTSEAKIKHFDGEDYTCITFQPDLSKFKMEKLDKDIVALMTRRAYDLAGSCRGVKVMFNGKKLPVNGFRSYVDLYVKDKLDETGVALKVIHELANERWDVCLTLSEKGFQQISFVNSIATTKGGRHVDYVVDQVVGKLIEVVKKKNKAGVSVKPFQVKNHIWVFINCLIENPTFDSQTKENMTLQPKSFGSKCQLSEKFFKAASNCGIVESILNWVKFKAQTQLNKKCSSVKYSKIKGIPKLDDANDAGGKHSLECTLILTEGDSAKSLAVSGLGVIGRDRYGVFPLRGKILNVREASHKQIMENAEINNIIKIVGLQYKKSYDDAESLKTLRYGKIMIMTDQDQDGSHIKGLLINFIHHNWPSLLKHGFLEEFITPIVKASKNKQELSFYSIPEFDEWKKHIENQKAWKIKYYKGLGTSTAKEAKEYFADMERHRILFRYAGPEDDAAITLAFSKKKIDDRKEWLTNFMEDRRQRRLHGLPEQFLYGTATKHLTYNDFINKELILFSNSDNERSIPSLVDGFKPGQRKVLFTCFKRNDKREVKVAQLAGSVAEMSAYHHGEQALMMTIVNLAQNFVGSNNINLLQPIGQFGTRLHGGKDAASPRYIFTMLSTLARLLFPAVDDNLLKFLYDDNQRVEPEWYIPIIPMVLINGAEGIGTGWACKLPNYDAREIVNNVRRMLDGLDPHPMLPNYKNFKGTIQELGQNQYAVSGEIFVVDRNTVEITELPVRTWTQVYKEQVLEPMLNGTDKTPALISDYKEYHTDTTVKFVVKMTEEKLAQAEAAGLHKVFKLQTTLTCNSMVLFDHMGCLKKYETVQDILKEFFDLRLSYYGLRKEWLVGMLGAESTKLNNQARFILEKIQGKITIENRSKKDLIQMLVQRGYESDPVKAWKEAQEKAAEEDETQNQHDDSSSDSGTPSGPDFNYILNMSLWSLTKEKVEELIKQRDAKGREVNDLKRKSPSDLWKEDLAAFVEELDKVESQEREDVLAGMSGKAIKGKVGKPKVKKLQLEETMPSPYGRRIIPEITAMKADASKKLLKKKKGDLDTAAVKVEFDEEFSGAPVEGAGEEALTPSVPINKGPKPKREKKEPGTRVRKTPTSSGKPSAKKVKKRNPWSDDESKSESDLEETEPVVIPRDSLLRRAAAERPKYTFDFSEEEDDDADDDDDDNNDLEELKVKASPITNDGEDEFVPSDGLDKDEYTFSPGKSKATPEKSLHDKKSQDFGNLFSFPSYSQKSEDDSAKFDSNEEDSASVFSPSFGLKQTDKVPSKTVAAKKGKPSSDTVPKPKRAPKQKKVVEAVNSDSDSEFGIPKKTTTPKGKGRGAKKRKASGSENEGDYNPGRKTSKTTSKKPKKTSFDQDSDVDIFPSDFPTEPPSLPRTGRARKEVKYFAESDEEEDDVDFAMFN
Data set [9] shares this target. Description: Inhibition of topoisomerase 2beta in human K562 cells assessed as cleavage of supercoiled pRYG DNA at 300 nM after 0.5 hrs by TARDIS assay relative to control. The class given is cell-based.
Data set [10] shares this target. Description: Inhibition of topoisomerase 2beta in human K562 cells assessed as cleavage of supercoiled pRYG DNA at 300 nM after 24 hrs by TARDIS assay. Format: cell-based.

Sequence of DNA topoisomerase 2-alpha (Homo sapiens) (P11388 whole entry): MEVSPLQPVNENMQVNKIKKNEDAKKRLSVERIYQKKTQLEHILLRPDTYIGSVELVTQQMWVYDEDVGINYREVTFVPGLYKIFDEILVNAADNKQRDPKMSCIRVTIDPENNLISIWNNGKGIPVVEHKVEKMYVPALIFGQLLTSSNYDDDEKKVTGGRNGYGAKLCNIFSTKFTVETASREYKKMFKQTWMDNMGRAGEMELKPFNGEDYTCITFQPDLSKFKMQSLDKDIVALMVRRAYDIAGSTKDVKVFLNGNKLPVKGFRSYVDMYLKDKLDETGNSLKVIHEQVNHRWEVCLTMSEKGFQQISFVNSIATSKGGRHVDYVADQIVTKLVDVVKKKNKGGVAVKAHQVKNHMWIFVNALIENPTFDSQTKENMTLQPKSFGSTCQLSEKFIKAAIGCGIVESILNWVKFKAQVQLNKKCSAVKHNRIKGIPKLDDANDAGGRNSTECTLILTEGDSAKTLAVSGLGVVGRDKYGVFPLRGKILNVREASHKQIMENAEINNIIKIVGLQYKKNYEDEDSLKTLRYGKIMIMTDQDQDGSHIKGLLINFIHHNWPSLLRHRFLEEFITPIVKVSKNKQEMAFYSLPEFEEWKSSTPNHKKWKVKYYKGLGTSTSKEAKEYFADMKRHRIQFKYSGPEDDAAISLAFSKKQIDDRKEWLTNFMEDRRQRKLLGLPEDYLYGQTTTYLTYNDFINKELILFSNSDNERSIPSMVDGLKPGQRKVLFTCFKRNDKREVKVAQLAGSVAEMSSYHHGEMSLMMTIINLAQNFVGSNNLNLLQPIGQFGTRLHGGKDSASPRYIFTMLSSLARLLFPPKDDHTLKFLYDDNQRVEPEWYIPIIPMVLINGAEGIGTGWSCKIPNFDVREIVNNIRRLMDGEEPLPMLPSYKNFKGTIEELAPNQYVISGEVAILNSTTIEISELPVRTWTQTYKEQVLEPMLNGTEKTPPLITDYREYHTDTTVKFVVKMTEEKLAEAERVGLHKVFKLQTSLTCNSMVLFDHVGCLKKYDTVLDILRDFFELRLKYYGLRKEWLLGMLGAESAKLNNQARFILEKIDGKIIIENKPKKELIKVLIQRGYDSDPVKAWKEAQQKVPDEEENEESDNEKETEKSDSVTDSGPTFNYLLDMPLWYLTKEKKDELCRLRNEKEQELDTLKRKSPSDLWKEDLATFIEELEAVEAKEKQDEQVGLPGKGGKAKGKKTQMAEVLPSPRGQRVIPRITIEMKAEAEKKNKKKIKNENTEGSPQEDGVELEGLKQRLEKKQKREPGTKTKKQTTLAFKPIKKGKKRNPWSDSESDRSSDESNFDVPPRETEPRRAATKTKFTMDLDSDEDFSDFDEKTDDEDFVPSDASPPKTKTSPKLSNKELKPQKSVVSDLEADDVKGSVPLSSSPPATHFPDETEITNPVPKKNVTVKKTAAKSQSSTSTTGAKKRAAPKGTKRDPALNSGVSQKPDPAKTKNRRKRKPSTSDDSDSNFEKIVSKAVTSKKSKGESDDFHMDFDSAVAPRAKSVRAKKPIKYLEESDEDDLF

A word on the IC50: it is the point on the concentration scale where inhibition reaches its midpoint. Lower therefore signals greater potency in that assay. Turning to `C[C@]12CC[C@H](O)C[C@H]1CC[C@@H]1[C@@H]2CC[C@]2(C)[C@@H](C3=CC(=O)OC3)CC[C@]12O` [DIGITOXIGENIN], the IC50 in the data set with TK-10 [1] was 76.5 nM; in the data set with MCF7, 194 nM; with UACC-62, 349 nM.
Consider `C[C@H]1O[C@@H](O[C@H]2[C@@H](O)C[C@H](O[C@H]3[C@@H](O)C[C@H](O[C@H]4CC[C@@]5(C)[C@H](CC[C@@H]6[C@@H]5CC[C@]5(C)[C@@H](C7=CC(=O)OC7)CC[C@]65O)C4)O[C@@H]3C)O[C@@H]2C)C[C@H](O)[C@@H]1O` [DIGITOXIN], for which the IC50 in the data set on TK-10 [1] is 3.2 nM; in the data set on MCF7, 10.2 nM; in the data set with UACC-62 it was 33.5 nM; in the data set with K562 it was 6.4 nM. In the data set filed under Homo sapiens, the concentration is 19.6 nM. The viability at 0.003 µM in the data set on TK-10 [2] is 52.1%. For the same compound, the Activity in the data set on TK-10 [3] was 41.3%; in the data set on TK-10 [4], 6.6%; in [8], “tde”. In addition, the outcome in data set [5] and in data set [6] was inactive. For the same compound, the result in data set [7], in data set [9] and in data set [10] was Active.
For `C[C@]12CC[C@H](O)C[C@H]1CC[C@@H]1[C@@H]2C[C@@H](O)[C@]2(C)[C@@H](C3=CC(=O)OC3)CC[C@]12O` [DIGOXIGENIN], the values for the IC50 in the data set with TK-10 [1], with MCF7 and in the data set with UACC-62 were 318 nM, 507 nM and 416 nM, respectively.
Turning to `C[C@H]1O[C@@H](O[C@H]2[C@@H](O)C[C@H](O[C@H]3[C@@H](O)C[C@H](O[C@H]4CC[C@@]5(C)[C@H](CC[C@@H]6[C@@H]5C[C@@H](O)[C@]5(C)[C@@H](C7=CC(=O)OC7)CC[C@]65O)C4)O[C@@H]3C)O[C@@H]2C)C[C@H](O)[C@@H]1O` [DIGOXIN], the IC50 in the data set with TK-10 [1] came out at 14.6 nM; with MCF7, 24.1 nM; in the data set on UACC-62 it was 29.5 nM; with K562, 28.2 nM. This compound had a concentration in the data set listed under Homo sapiens of 0.6 nM.
For `COc1cc([C@@H]2c3cc4c(cc3[C@@H](O[C@@H]3O[C@@H]5CO[C@@H](C)O[C@H]5[C@H](O)[C@H]3O)[C@H]3COC(=O)[C@H]23)OCO4)cc(OC)c1O` [ETOPOSIDE], the figures for the IC50 in the data set with TK-10 [1], in the data set on MCF7 and with UACC-62 were 9950 nM, 878 nM and 1130 nM, respectively.
In the same order, the values of `C[C@]12CC[C@H](O)C[C@H]1CC[C@@H]1[C@@H]2CC[C@]2(C)[C@@H](C3=CC(=O)OC3)[C@@H](O)C[C@]12O` [GITOXIGENIN] are 416 nM, 1810 nM and 2840 nM.
On the same counts, the results for `C[C@H]1O[C@@H](O[C@H]2[C@@H](O)C[C@H](O[C@H]3[C@@H](O)C[C@H](O[C@H]4CC[C@@]5(C)[C@H](CC[C@@H]6[C@@H]5CC[C@]5(C)[C@@H](C7=CC(=O)OC7)[C@@H](O)C[C@]65O)C4)O[C@@H]3C)O[C@@H]2C)C[C@H](O)[C@@H]1O` [GITOXIN] are 131 nM, 252 nM and 369 nM.

These data come from ChEMBL document CHEMBL1158830, “Digitoxin inhibits the growth of cancer cell lines at concentrations commonly found in cardiac patients” (J Nat Prod, 2005).
